From PubChem BioAssay (NCI)
Several values for one entry are separate records, joined by “and”; a condition that tells them apart may be missing. Equal entries are not always repeated.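 Tested at 5 concentrations; 48 h exposure; 96-well plates; endpoints linearly interpolated, else capped at highest concentration. GI50 is the concentration that inhibits growth by half. The concentration for full growth arrest is given as TGI.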

Assays:
Assay in all cases: growth of human tumour cells (NCI), 48 h
SR leukemia = test system: SR leukemia
SF-295 CNS = test system: SF-295 CNS
HCT-15 colon = test system: HCT-15 colon
DU-145 prostate = test system: DU-145 prostate
HOP-92 NSCLC = test system: HOP-92 NSCLC
SN12C renal = test system: SN12C renal
NCI/ADR-RES ovarian = test system: NCI/ADR-RES ovarian
OVCAR-5 ovarian = test system: OVCAR-5 ovarian
OVCAR-3 ovarian = test system: OVCAR-3 ovarian
TK-10 renal = test system: TK-10 renal

O=C1C2CCN(CC2)C1CN1CCOCC1 (stereo not given)
TGI (SR leukemia): 35.5 µM | TGI (SF-295 CNS): 33.9 µM | TGI (HCT-15 colon): 4.94 µM | TGI (DU-145 prostate): 20.1 µM | TGI (HOP-92 NSCLC): 3.47 µM | TGI (SN12C renal): 8.28 µM | TGI (NCI/ADR-RES ovarian): 3.41 µM | TGI (OVCAR-5 ovarian): 13.5 µM | TGI (OVCAR-3 ovarian): 4.18 µM | TGI (TK-10 renal): 13.2 µM

Cc1c(CN2CCN(C(=O)[C@H](C)O)CC2)sc2c(N3CCOCC3)nc(-c3cnc(N)nc3)nc12
GI50 (SR leukemia): 0.365 µM and 0.262 µM | TGI (SR leukemia): > 10 µM and 3.88 µM | GI50 (SF-295 CNS): 0.131 µM and 0.0822 µM | TGI (SF-295 CNS): 1.72 µM and 0.529 µM | GI50 (HCT-15 colon): 0.258 µM and 0.248 µM | TGI (HCT-15 colon): > 100 µM | GI50 (DU-145 prostate): 0.424 µM and 0.244 µM | TGI (DU-145 prostate): > 100 µM | GI50 (HOP-92 NSCLC): 0.143 µM and 0.0181 µM | TGI (HOP-92 NSCLC): 0.8 µM and 0.108 µM | GI50 (SN12C renal): 0.179 µM and 0.174 µM | TGI (SN12C renal): > 100 µM | GI50 (NCI/ADR-RES ovarian): 0.663 µM and 0.408 µM | TGI (NCI/ADR-RES ovarian): > 30.2 µM | GI50 (OVCAR-5 ovarian): 0.192 µM and 0.128 µM | TGI (OVCAR-5 ovarian): > 10 µM and 4.3 µM | GI50 (OVCAR-3 ovarian): 0.202 µM and 0.182 µM | TGI (OVCAR-3 ovarian): 5.4 µM and 2.18 µM | GI50 (TK-10 renal): 0.191 µM and 0.131 µM | TGI (TK-10 renal): 3.51 µM and 0.825 µM

CN1C(=O)CCC(N2C(=O)c3cccc(NCCOCCOCCNC(=O)c4cc5c(o4)C(=O)c4ccccc4C5=O)c3C2=O)C1=O (stereo not given)
GI50 (SR leukemia): 1.99 µM | TGI (SR leukemia): 7.5 µM | GI50 (SF-295 CNS): 1.66 µM | TGI (SF-295 CNS): 3.08 µM | GI50 (HCT-15 colon): 1.77 µM | TGI (HCT-15 colon): 3.83 µM | GI50 (DU-145 prostate): 1.5 µM | TGI (DU-145 prostate): 2.89 µM | GI50 (HOP-92 NSCLC): 3.71 µM | TGI (HOP-92 NSCLC): 13.6 µM | GI50 (SN12C renal): 1.41 µM | TGI (SN12C renal): 2.79 µM | GI50 (NCI/ADR-RES ovarian): 6.3 µM | TGI (NCI/ADR-RES ovarian): 36.5 µM | GI50 (OVCAR-5 ovarian): 1.76 µM | TGI (OVCAR-5 ovarian): 3.17 µM | GI50 (OVCAR-3 ovarian): 1.53 µM | TGI (OVCAR-3 ovarian): 4 µM | GI50 (TK-10 renal): 3.5 µM | TGI (TK-10 renal): 7.55 µM

COc1nc(N)nc2c1ncn2C1CC(O)C(CO)O1 (stereo not given)
TGI (SR leukemia): > 100 µM | TGI (SF-295 CNS): > 100 µM | TGI (HCT-15 colon): > 100 µM | TGI (DU-145 prostate): > 100 µM | TGI (HOP-92 NSCLC): > 100 µM | TGI (SN12C renal): > 100 µM | TGI (NCI/ADR-RES ovarian): > 100 µM | TGI (OVCAR-5 ovarian): > 100 µM | TGI (OVCAR-3 ovarian): > 100 µM | TGI (TK-10 renal): > 100 µM

CC(C)(C)OC(=O)NCC(CNC(=O)OC(C)(C)C)C(N)=O
TGI (SR leukemia): > 100 µM | TGI (SF-295 CNS): > 100 µM | TGI (HCT-15 colon): > 100 µM | TGI (DU-145 prostate): > 100 µM | TGI (HOP-92 NSCLC): > 100 µM | TGI (SN12C renal): > 100 µM | TGI (NCI/ADR-RES ovarian): > 100 µM | TGI (OVCAR-5 ovarian): > 100 µM | TGI (OVCAR-3 ovarian): > 100 µM | TGI (TK-10 renal): > 100 µM

COc1ccc(-c2ncnc3c2ncn3CC#CCCl)cc1
GI50 (SR leukemia): 5.24 µM | TGI (SR leukemia): > 100 µM | GI50 (SF-295 CNS): 2.35 µM | TGI (SF-295 CNS): 7.15 µM | GI50 (HCT-15 colon): 4.07 µM | TGI (HCT-15 colon): 17.7 µM | GI50 (DU-145 prostate): 4.74 µM | TGI (DU-145 prostate): 18.4 µM | GI50 (HOP-92 NSCLC): 2.75 µM | TGI (HOP-92 NSCLC): 11.8 µM | GI50 (SN12C renal): 2.26 µM | TGI (SN12C renal): 6.32 µM | GI50 (NCI/ADR-RES ovarian): 2.72 µM | TGI (NCI/ADR-RES ovarian): 8.15 µM | GI50 (OVCAR-5 ovarian): 3.25 µM | TGI (OVCAR-5 ovarian): 12.1 µM | GI50 (OVCAR-3 ovarian): 1.93 µM | TGI (OVCAR-3 ovarian): 5.75 µM | GI50 (TK-10 renal): 7.29 µM | TGI (TK-10 renal): 24 µM
